Literature values as cited in patent EP0387265B1, “USE OF 5-AMINOSALICYCLIC ACID (5-ASA) FOR THE PRODUCTION OF A PHARMACEUTICAL PREPARATION FOR USE IN REPERFUSION TREATMENT” (priority 1987, dated 1989).
Where two headings read alike, the source gives them in different places.

Key:
[1] = system: acute myocardial ischemia and reperfusion injuries; conditions: dogs; MPG together with neutrophilic antiserum; compared to a control group which received non-immune serum
[2] = in vivo
[3] = rats
[4] = system: reperfusion ischemic injury in the gastric mucosa; conditions: rats
[5] = 100 or 250 mg intravenously, 6 normal test humans
[6] = capable of neutralizing the toxic properties of the free radicals of oxygen; 'in contrast to' means not a radical scavenger
[7] = 250 mg intravenously, humans having normal coagulation
[8] = humans, moderate doses
colitis ulcerosa = conditions: in vivo

CC(S)C(=O)NCC(=O)O (stereo not shown) [MPG, N-2-mercaptopropionyl glycine]
reduced the infarct size [1]: 63%

Nc1ccc(O)c(C(=O)O)c1 [5-ASA, 5-aminosalicylic acid]
side effects [2]: No side effects have been observed which can be related to the substance with certainty
nephrotoxic effect [3]: nephrotoxic effect has been demonstrated
protection against reperfusion ischemic injury in the gastric mucosa [4]: offers protection
distribution volume [5]: 0.4 L/kg
half-life [5]: 35 min
radical scavenger [6]: is a radical scavenger
effect of fibrinolysis [7]: has not been found to result in any effect
effect of the thrombocyte function [7]: has not been found to result in any effect
nephrotoxic effect [8]: does not have any noticeable nephrotoxic effect

Nc1ccc(S(=O)(=O)Nc2ccccn2)cc1 [sulfapyridine]
protection against reperfusion ischemic injury in the gastric mucosa [4]: not

O=C([O-])c1ccccc1O.[Na+] [sodium salicylate]
effect against colitis ulcerosa (colitis ulcerosa): no effect

CC(=O)Oc1ccccc1C(=O)O [acetylsalicylic acid]
effect against colitis ulcerosa (colitis ulcerosa): no effect
